PubChem BioAssay (NCI)
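These data come from cells grown in 96-well plates and exposed to compound for 48 hours at five concentrations. Abbreviation: GI50, concentration required for 50% inhibition of growth. TGI: concentration producing complete growth inhibition.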

Key:
Experiment in all cases: NCI tumour cell line growth inhibition, 48 h
[1] = system: U251 CNS
[2] = system: RPMI-8226 leukemia
[3] = system: SW-620 colon
[4] = system: SK-MEL-28 melanoma
[5] = system: A549 NSCLC
[6] = system: OVCAR-4 ovarian
[7] = system: EKVX NSCLC
[8] = system: HCT-116 colon
[9] = system: MDA-MB-231 breast
[10] = system: MDA-MB-435

Row | SMILES | TGI [1] [µM] | TGI [2] [µM] | TGI [3] [µM] | TGI [4] [µM] | TGI [5] [µM] | TGI [6] [µM] | TGI [7] [µM] | TGI [8] [µM] | GI50 [1] [µM] | GI50 [2] [µM] | GI50 [3] [µM] | GI50 [4] [µM] | GI50 [9] [µM] | TGI [9] [µM] | GI50 [5] [µM] | GI50 [6] [µM] | GI50 [7] [µM] | GI50 [8] [µM] | GI50 [10] [µM] | TGI [10] [µM]
1 | CCCNC(=O)c1cc2ccccc2cc1C(=O)OC | > 100 | > 100 | > 100 | > 100 | > 100 | > 100 | > 100 | > 100 |  |  |  |  |  |  |  |  |  |  |  | 
2 | O=C1OCC2=C1C(c1cccc(F)c1)c1cc3c(cc1N2CCO)OCCO3 (stereo unspecified) | > 50 | > 50 | > 50 | > 50 | > 50 | > 50 | > 50 | > 50 | 0.221 | 0.207 | 0.186 | 1.5 | 0.32 | > 20.3 | 0.32 | 1.97 | 0.306 | 0.204 |  | 
3 | CCOC(=O)CNC(SC)=C(C#N)C#N | > 100 | > 100 | > 100 |  | > 100 | > 100 | > 100 | > 100 |  |  |  |  |  |  |  |  |  |  |  | 
4 | CC(=O)OC1CCC2(C)C(CCC3C2CCC2(C)C(C4=CC(=O)OC4)CCC32)C1 (stereo unspecified) |  | 3.03 | > 100 | 22 | 19.7 | 95.1 |  | > 100 |  | 0.928 | 32 | 4.75 | 0.725 | 2.81 | 3.05 | 12.1 |  | 7.66 | 4.2 | 33.5
5 | CCOC(=O)c1c(-c2[nH]c(C(=O)OCc3ccccc3)c(C)c2C(=O)OCC)[nH]c(C(=O)OCc2ccccc2)c1C | > 100 | > 100 | > 100 | > 100 | > 100 |  | > 100 | > 100 |  |  |  |  |  |  |  |  |  |  |  | 
6 | O=C(O)c1cn(C2CC2)c2cc(N3CCN(S(=O)(=O)c4ccc(Cl)c(Cl)c4)CC3)c(F)cc2c1=O | > 100 | 7.59 | > 100 |  | > 100 |  |  | > 100 | 3.33 | 2.53 | 4.05 |  |  |  | 3.08 |  |  | 3.86 | 2.97 | > 100
7 | OCCc1cnco1 | > 100 | > 100 | > 100 | > 100 | > 100 | > 100 | > 100 | > 100 |  |  |  |  |  |  |  |  |  |  |  | 
8 | O=C1C2Cc3ccccc3CN2C(=O)N1CN1CCN(CN2C(=O)C3Cc4ccccc4CN3C2=O)CC1 (stereo unspecified) | > 100 | > 100 | > 100 | > 100 | > 100 |  | > 100 |  |  |  |  |  |  |  |  |  |  |  |  | 
9 | Cc1cn(C2C=CC(=O)C(C)O2)c(=O)[nH]c1=O (stereo unspecified) | 28.6 | 47.9 | 28.8 | 28.1 | > 100 |  |  | 24.6 |  |  |  |  |  |  |  |  |  |  |  | 
10 | COc1cc2c(c3oc(-c4ccc5c(c4)OCO5)c(O)c(=O)c13)CCC(C)(C)O2 |  | > 100 | > 100 | > 100 | > 100 |  | > 100 |  |  |  |  |  |  |  |  |  |  |  |  | 
11 | O=C1Nc2ccccc2C12CC(c1ccccc1)=NN2 (stereo unspecified) | > 100 | 90.5 | > 100 | > 100 | > 100 | > 100 |  | > 100 | 5.4 | 5.53 | 3.75 | 15.7 | 8.61 | 79.7 | 5.11 | 23.6 |  | 4.83 | 1.66 | 4.5
12 | COc1cc2ccc(CC#N)cc2cc1OC | > 100 |  | > 100 | > 100 | > 100 | > 100 | > 100 |  |  |  |  |  |  |  |  |  |  |  |  | 
13 | COc1cc(NCC(C#N)C#N)ccc1N=Nc1ccc([N+](=O)[O-])cc1 | > 100 | > 100 | > 100 | > 100 | > 100 | > 100 | > 100 | > 100 |  |  |  |  |  |  |  |  |  |  |  | 
14 | Cc1cc(-c2ccccc2)c(C)n1Cc1ccc(Cl)cc1 | > 100 | 61.6 | > 100 | > 100 | > 100 | > 100 |  | 23.4 | 4.65 | 3.83 | 3.06 | 6.18 | 6.17 | 32.3 | 5.73 | 9.56 |  | 3.8 | 0.368 | 2.55
15 | COc1cc(Nc2ncc3c(n2)-c2ccc(Cl)cc2C(c2c(F)cccc2OC)=NC3)ccc1C(=O)O | 33.3 | > 65 | > 100 | > 92 | 37.8 | > 86.2 | 69.1 |  | 2.74 | 12 | 1.74 | 13.2 | 3.07 | > 100 | 0.505 | 3.7 | 13.1 |  |  | 
16 | CC1SC2=NC3=C(c4ccccc4C3=O)C(c3ccc(Br)cc3)N2C1=O (stereo unspecified) | > 100 | > 100 | > 100 | > 100 | > 100 | > 100 | > 100 |  |  |  |  |  |  |  |  |  |  |  |  | 
17 | COc1ccc(CNc2nc3ccccc3nc2-c2cccs2)cc1OC | > 100 | > 100 | > 100 | > 100 | > 100 |  | > 100 | > 100 |  |  |  |  |  |  |  |  |  |  |  | 
18 | C#CCOCn1cnc2ncnc(Cl)c21 | > 100 | > 100 | > 100 | > 100 | > 100 | > 100 | > 100 | > 100 |  |  |  |  |  |  |  |  |  |  |  | 
19 | CCC[CH2][Sn]1([CH2]CCC)[O]C(=O)C[S]1 | 2.65 | 3.57 | 3.13 | 2.69 | 23.5 | 4.67 | 6.53 | 4.49 | 1.33 | 0.455 | 0.984 | 1.35 |  |  | 8.9 | 2.16 | 2.46 | 1.91 |  | 
20 | O=C(CCCn1ccnc1[N+](=O)[O-])NCCn1cnc([N+](=O)[O-])c1 | > 100 | > 100 | > 100 | > 100 | > 100 | > 100 | > 100 | > 100 |  |  |  |  |  |  |  |  |  |  |  | > 100
21 | COC1=NN2C(OC)(c3ccccc3)c3c(-c4ccccc4)sc(-c4ccccc4)c3C2(c2ccccc2)S1 (stereo unspecified) | > 100 |  | > 100 | > 100 | > 100 |  |  | > 100 |  |  |  |  |  |  |  |  |  |  |  | 
